Measured values reported in patent publication US12194201B2, “Silica nanoparticle doped conductive polymer” (University of Pittsburgh—Of the Commonwealth System of …, priority 2019, dated 2025).

How the values were obtained:
[1] = K3[Fe(CN)6] reduction (Prussian blue) antioxidant assay of released melatonin
Experimental: 1 mL of solution was removed and added to 0.8 mL of water, followed by the addition of 200 μL of FeCl3(0.01%, 6 μM), creating a deep blue dye. The absorbance of the resulting solution was measured at 700 nm.

[2] = Electrically controlled dye loading and release from PEDOT/SNP films in PBS; format: physicochemical
Source text: Drug loading and release from conducting polymers with electrical control offers a precise method for pharmacological delivery directly to the site of implantation on demand. Mesoporous SNP were employed for drug delivery due to their exceptionally high loading volume. Rhodamine and fluorescein were used as model drugs for quantifying drug release profile. Fluorescein has a negative charge while rhodamine-b is positively charged, and the combination of rhodamine and fluorescein allow for a better understanding of how oppositely charged compounds can be released from PEDOT/SNP films. The drug loading and release mechanism is depicted in FIG. 2. Nanoparticles were suspended in an aqueous solution of fluorescein, rhodamine, or a combination of both, and sonicated to encourage the entry of the dye into the pores. Loaded sulfonate nanoparticles are then collected from solution by centrifuge then resuspended in an aqueous solution of EDOT. PEDOT/SNP films are polymerized under constant current, producing a film of polymer gated silica nanoparticles. An immediate observation made was the ease of polymerization when the dye was loaded into SNPs prior to polymerization vs without SNPs, with electrode potential being substantially lower for electro-polymerization of drug loaded SNP (FIG. 11). After polymerization, electrodes coated with the dye-loaded composite were examined under a fluorescent microscope to observe the release in phosphate buffered saline (PBS) in real time (FIG. 12). A cyclic voltage sweep from 0.8V to −0.6V was used to trigger drug release from the coatings. We observed a halo of fluorescence surrounding the electrode upon stimulation, which dissipates within seconds of the end of stimulation.
We further quantified the amount of release over number of stimuli from PEDOT/SNP composite and compared the performance to a control group of PEDOT loaded with the dye directly without the mesoporous SNP. Control and SNP dopant groups were polymerized to the same charge density. […]

[3] = test system: highly aggressive proliferating immortalized (HAPI) microglia cells; assay: Live/Dead staining of cells on polymer substrate; format: cell-based; conditions: 2 days, Triton-X 0.2% positive control on TCPS
Experimental: A cytotoxicity assessment was performed on the PEDOT/SNP composite. Both PEDOT^[51] and silica nanoparticles^[40] have each been successfully employed in in vivo applications. However, small changes to the surface chemistry of the silica nanoparticle warrant investigation into the potential for adverse biological interactions. The commonly employed polymer PEDOT/PSS itself has been previously characterized as non-toxic;^[52] and was used as an ideal reference for the toxicity testing of the PEDOT/SNP. The biocompatibility of the PEDOT/SNP surface was evaluated by directly culturing highly aggressive proliferating immortalized (HAPI) microglia cells on the substrate. After 2 days, XTT was used to measure to metabolic activity of the cells. […] A small degree of auto-fluorescence is detectable for both polymer coatings, resulting in a slight amount of red and green background. […] Given these findings, we can expect that the PEDOT/SNP surface is safe and non-toxic for acute experimentation, while chronic biocompatibility should still be evaluated. […]
XTT assay was performed as directed by the distributer. […] Cells were incubated for 3 hours and the absorbance of the supernatant was measured at 450 nm. […] Cells were incubated for 1 hour and imaged with fluorescence microscopy.

[4] = Dox release from PEDOT/SNP film into serum free DMEM; format: physicochemical
Experimental: (§1) Electrochemical methods of drug release may alter the activity of a compound due to the applied potentials, and it is therefore important to verify that the loading and release process doesn't compromise the drug's bioactivity. […] For Dox, a potent chemotherapeutic, release was performed for 0 (passive diffusion for 24 hours), 20, or 200 cycles into serum free DMEM. A small amount of diffusion release was observed from Dox loaded electrodes, as measured by absorbance at […]. […] Released Dox was introduced to cultured 3T3 mouse fibroblast cells (FIG. 7B) and the toxicity was compared to freshly prepared Dox solution at the same concentration. After a 3-day incubation period, the viability of the 3T3 cells was evaluated with the XTT assay. […] Therefore, even though we detected a minute amount of Dox in the diffusion control, this quantity is below the toxic level.
5 mg of mesoporous SNP were sonicated with 200 μl of drug solution for 20 minutes prior to the particles being collected by centrifuge and dried under vacuum.
5 mg of drug loaded particles were suspended in 3 ml of EDOT (0.01M) solution in water. Electropolymerization was carried out for 200 seconds on 2 mm diameter gold electrodes or 70 μm diameter Pt/Ir wires (A-M systems, 90/10 Pt/Ir). Electrodes were then washed with PBS on an orbital shaker for 2 hours then soaked overnight to remove any adsorbed drugs.

[5] = test system: 3T3 mouse fibroblast cells; assay: 3T3 viability (XTT) after incubation with released Dox; format: cell-based; conditions: 3-day incubation
Experimental: as §1
XTT assay was performed as directed by the distributer. In brief, 2,3-Bis-(2-Methoxy-4-Nitro-5-Sulfophenyl)-2H-Tetrazolium-5-Carboxanilide (XTT, Invitrogen, 1 mg ml^−1) was added to culture media. 10 μl of phenazine methosulfate (PMS, 10 mM) was added to XTT/media solution (4 ml) just prior to the addition of XTT solution (50 uL) per well. Cells were incubated for 3 hours and the absorbance of the supernatant was measured at 450 nm. HAPI cells were imaged with a Live/Dead assay (Invitrogen). Supernatant solution was removed and replaced with 1/1000 dilutions for Propidium Iodide and Calcein AM in PBS. Cells were incubated for 1 hour and imaged with fluorescence microscopy.
Dox was loaded and released from PEDOT/SNP films as described above. 3T3 cells were cultured in 48 well plates for 2 days to reach semi-confluency, at which point the culture media was removed and replaced with serum-free media containing stock dox, released dox, or no dox. Cells were culture for 72 h, at which point the media was aspirated and the viability of the cells measured with XTT assay as described above.

[6] = test system: neural activity; assay: In vivo DNQX release from PEDOT/SNP coated carbon fiber electrode, GCaMP imaging; conditions: DNQX loaded PEDOT/SNP on carbon fiber electrode, reducing potential, GCaMP mouse
Source text: Next, we aimed to modulate cellular activity by release of the glutamate AMPA/Kainate receptor antagonist 6,7-dinitroquinoxaiine-2,3-dione (DNQX). DNQX is a small, negatively charged compound that blocks glutamate transmission. We have previously observed that DNQX may be loaded and electrically released from PEDOT/CNT films in vivo and produce a transient (<6 second) inhibition of sensory evoked neural activity recorded in barrel cortex of rats.^[9] In this study, DNQX release from PEDOT/SNP was assessed using a GCaMP mouse model. The GCaMP fluorescence is tied directly to intracellular calcium activity, such that when neurons fire action potentials, the calcium influx cause GCaMP to produce a bright green fluorescence. […]
All animal work was performed under the guidelines of the University of Pittsburgh Institutional Animal Care and Use Committee (IACUC). […] First, a 2-minute baseline was recorded. […] Following 10 cycles of stimulation, a final 2-minute baseline recording was performed Calculations of fluorescence are made by first masking the electrode. A background fluorescence was determined by averaging all frames together, allowing for representation of small time windows as the % change vs the background intensity as shown below.
The inter-pulse fluorescence was determined by Δf during the reducing voltage, and comparing this to the Δf during the prior oxidative voltage (V>−0.2).

[7] = test system: sensory evoked neural activity recorded in barrel cortex; conditions: released from PEDOT/CNT films, rat barrel cortex; cited from earlier work

COc1ccc2[nH]cc(CCNC(C)=O)c2c1 [melatonin]
change in absorbance at 700 nm (antioxidant capacity) ([1]; melatonin released from PEDOT/SNP film): significant change in the absorbance
change in absorbance at 700 nm (antioxidant capacity) ([1]; stock melatonin): significant change in the absorbance

CCN(CC)c1ccc2c(-c3ccccc3C(=O)O)c3ccc(=[N+](CC)CC)cc-3oc2c1 [rhodamine, rhodamine-b]
quantified fluorescent intensity during release vs after ([2]; PBS, cyclic voltage sweep 0.8V to −0.6V, dye-loaded PEDOT/SNP): significantly higher
dye release relative to control sample ([2]; over 9,000 (fluorescein) and 5,000 (rhodamine) stimulations, control PEDOT loaded with dye without SNP): substantial increase
Overall drug loading increase when SNP used as a reservoir ([2]; vs PEDOT loaded with the dye directly, same charge density): 16.8 ×

Triton-X
Live dead staining of the cells on the substrate [3]: no viable cells

COc1cccc2c1C(=O)c1c(O)c3c(c(O)c1C2=O)C[C@@](O)(C(=O)CO)C[C@@H]3O[C@H]1C[C@H](N)[C@H](O)[C@H](C)O1 [Dox, Doxorubicin]
Dox released from PEDOT/SNP film ([4]; 20 stimulations): 1.44 μg cm^−2
Dox released from PEDOT/SNP film ([4]; 200 stimulations): 7.4 μg cm^−2
effect of released Dox vs concentration-matched stock Dox [5]: no difference
3T3 viability vs standard culture media ([5]; diffusion control (0 cycles, passive diffusion 24 hours)): No significant difference
3T3 viability vs control ([5]; released Dox from 20 stimulations): significantly reduced the viability
3T3 viability vs control ([5]; released Dox from 200 stimulations): significantly reduced the viability

6,7-dinitroquinoxaline-2,3-dione [DNQX]
GCaMP fluorescence intensity during DNQX release vs prior [6]: significant decrease
duration of transient inhibition of sensory evoked neural activity [7]: < 6 s
